From ChEMBL document CHEMBL1123509, “In vitro inhibition of estrogen sulfoconjugation by some 2- and 4-substituted estra-1,3,5(10)-trien-17 beta-ols1a” (J Med Chem, 1986) come the findings set out here.

Structures are written as SMILES.

The test addresses T1, Estrogen sulfotransferase (Sus scrofa, UniProt Q95MF8).
T1 sequence (Q95MF8 whole entry): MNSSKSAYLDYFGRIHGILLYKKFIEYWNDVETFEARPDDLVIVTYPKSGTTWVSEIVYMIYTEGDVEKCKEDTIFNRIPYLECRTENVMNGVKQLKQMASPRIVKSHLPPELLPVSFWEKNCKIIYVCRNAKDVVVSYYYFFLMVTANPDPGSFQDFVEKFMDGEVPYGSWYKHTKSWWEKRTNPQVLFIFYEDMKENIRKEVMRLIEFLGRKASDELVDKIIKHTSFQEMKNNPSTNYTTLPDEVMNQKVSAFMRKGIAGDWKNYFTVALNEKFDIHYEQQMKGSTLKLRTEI
The test is described as follows: Compound was tested for inhibition of porcine endometrial estrogen sulfotransferase. As to conditions: read-out: Ki app.

Regarding `C[C@]12CC[C@@H]3c4cc([N+](=O)[O-])ccc4CC[C@H]3[C@@H]1CC[C@@H]2O`, the Ki turned out to be 9.76 µM. For the compound `C[C@]12CC[C@@H]3c4cccc([N+](=O)[O-])c4CC[C@H]3[C@@H]1CC[C@@H]2O`, the Ki stood at 2.43 µM. `C[C@]12CC[C@@H]3c4cc(F)ccc4CC[C@H]3[C@@H]1CCC2O` (stereo not given in full): the Ki came to 13.6 µM.

Consider `C[C@]12CC[C@@H]3c4cccc(N)c4CC[C@H]3[C@@H]1CCC2=O`, for which the Ki is 10.5 µM. On to `C[C@]12CC[C@@H]3c4cc(N)ccc4CC[C@H]3[C@@H]1CCC2O` (stereo not given in full), for which the Ki was determined as 7.51 µM. Turning to `C[C@]12CC[C@@H]3c4cccc(F)c4CC[C@H]3[C@@H]1CCC2=O`, the Ki is 14.8 µM. For `C[C@]12CC[C@@H]3c4cccc(N)c4CC[C@H]3[C@@H]1CCC2O` (stereo not given in full) the value was 11.9 µM; for `C[C@]12CC[C@@H]3c4ccccc4CC[C@H]3[C@@H]1CCC2=O`, 25.1 µM; for `C[C@]12CC[C@@H]3c4cccc(F)c4CC[C@H]3[C@@H]1CC[C@@H]2O`, 10.2 µM. For `C[C@]12CC[C@@H]3c4ccccc4CC[C@H]3[C@@H]1CC[C@@H]2O` the value was 16.3 µM.
